How the values were obtained:
F508del/F508del CFTR = biological target: T1, F508del/F508del CFTR (Homo sapiens, UniProt P13569, DEL508-508); experiment: Transepithelial Clamp Circuit (TECC-24) conductance assay on primary human bronchial epithelial cells; type: cell-based; details: primary hBE cells F508del/F508del
T1 construct: cells isolated from CF patients with the homozygous mutation; endogenous in cells; host or cells: primary human bronchial epithelial (hBE) cells from F508del/F508del CF patients
T1 sequence (P13569 with tags, fused parts or gaps DEL508-508): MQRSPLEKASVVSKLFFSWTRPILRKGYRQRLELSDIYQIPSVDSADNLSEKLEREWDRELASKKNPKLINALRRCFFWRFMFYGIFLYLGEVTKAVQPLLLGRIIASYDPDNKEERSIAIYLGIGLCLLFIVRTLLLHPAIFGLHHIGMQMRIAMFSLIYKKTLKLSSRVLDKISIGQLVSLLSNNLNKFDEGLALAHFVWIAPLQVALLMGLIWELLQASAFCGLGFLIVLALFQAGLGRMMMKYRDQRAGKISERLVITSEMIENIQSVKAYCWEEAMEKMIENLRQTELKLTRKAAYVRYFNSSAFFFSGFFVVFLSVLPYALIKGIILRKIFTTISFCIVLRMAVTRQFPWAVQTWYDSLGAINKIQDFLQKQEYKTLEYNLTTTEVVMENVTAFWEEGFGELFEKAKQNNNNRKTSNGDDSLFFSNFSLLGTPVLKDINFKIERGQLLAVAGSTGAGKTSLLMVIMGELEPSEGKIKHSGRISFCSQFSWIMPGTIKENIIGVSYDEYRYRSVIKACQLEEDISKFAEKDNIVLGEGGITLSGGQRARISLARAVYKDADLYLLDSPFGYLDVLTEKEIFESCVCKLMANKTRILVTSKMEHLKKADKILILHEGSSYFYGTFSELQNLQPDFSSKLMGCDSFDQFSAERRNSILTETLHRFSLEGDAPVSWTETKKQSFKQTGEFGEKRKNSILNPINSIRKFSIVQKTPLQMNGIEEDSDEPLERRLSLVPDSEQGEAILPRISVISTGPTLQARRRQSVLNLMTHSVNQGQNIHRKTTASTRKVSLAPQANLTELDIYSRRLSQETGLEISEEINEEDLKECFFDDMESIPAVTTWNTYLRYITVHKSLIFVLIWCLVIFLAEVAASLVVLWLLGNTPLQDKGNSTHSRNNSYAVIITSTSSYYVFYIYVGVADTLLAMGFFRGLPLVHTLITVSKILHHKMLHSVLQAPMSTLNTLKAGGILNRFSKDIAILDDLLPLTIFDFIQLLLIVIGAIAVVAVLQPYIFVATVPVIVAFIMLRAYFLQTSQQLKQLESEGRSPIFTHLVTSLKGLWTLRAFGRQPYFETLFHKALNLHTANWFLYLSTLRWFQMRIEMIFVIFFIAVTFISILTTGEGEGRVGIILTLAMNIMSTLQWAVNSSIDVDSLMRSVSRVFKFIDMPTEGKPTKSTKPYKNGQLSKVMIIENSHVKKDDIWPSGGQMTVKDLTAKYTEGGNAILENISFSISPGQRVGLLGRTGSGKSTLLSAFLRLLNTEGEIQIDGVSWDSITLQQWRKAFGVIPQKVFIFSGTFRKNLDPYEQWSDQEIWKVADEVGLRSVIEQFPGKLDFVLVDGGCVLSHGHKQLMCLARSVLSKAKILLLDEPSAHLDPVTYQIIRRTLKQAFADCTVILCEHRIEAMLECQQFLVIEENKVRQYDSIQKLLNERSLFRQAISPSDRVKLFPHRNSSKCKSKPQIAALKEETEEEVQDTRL
Source text: A cell based assay using the primary human bronchial epithelial cells (hBE) was used as a secondary assay to test novel F508delCFTR correctors for their activity on primary hBE cells with F508del/F508del CFTR mutation. The assay used a TECC-24 (Transepithelial Clamp Circuit for 24 wells) instrument that measures the functionality of the mutated channel by measuring the equivalent short circuit current (Ieq) generated by the polarized epithelial cells. The instrument works by measuring the transepithelial potential difference (Vt) and transepithelial resistance (Rt) in an open circuit format, and the Ieq is calculated by using Ohms law (Ieq=Vt/Rt). The assay was run in a 24-well format and all 24-wells were measured at the same time point giving a higher throughput for this assay.
Primary human bronchial epithelial (hBE) cells from F508del/F508delCFTR patients were expanded from 1×10^6 to 250×10^6 cells (Neuberger T, Burton B, Clark H and VanGoor F; Cystic Fibrosis, Methods in Mole Biol 741; eds. Amaral M D and Kunzelmann K, 2011). […]
The % activity measured at each of the 6 test concentrations of the test compound was normalized to the on-plate positive control using the following formula: […]

F508delCFTR = F508delCFTR (Homo sapiens, UniProt P13569, DEL508-508); experiment: Cell Surface Expression-Horse Radish Peroxidase (CSE-HRP) assay; type: cell-based; details: CFBE41o-F508delCFTR-HRP cells
F508delCFTR, sequence (P13569 with tags, fused parts or gaps DEL508-508): as above
Method: A cellular assay for measuring the F508delCFTR cell surface expression after correction with test compounds was developed in human lung derived epithelial cell line (CFBE41o-) (Veit G et al, (2012) Mol Biol Cell. 23(21): 4188-4202). This was achieved by expressing the F508delCFTR mutation along with a horseradish peroxidase (HRP) in the fourth exofacial loop and then measuring the HRP activity using luminescence readout from these cells, CFBE41o-F508delCFTR-HRP, that were incubated overnight with the test corrector compounds. […] Post incubation, the plates were washed 5 x times with Dulbecco's phosphate buffered saline (DPBS), followed by the addition of the HRP substrate, luminol (50 μL), and measuring the HRP activity using luminescence readout on EnVision® Multilabel Plate Reader (Perkin Elmer; product number 2104-0010). The raw counts from the experiment are analyzed using Accelrys® Assay Explorer v3.3. […]
The % activity measured at each of the 8 test concentrations of the test compound was normalized to the on-plate positive control using the following formula: […]
The maximum % activity achieved for the test compound at any tested concentration is presented in Table 1 along with the EC50 calculated using the following general sigmoidal curve with variable Hill slope equation (described as Model 42 in the Accelrys® Assay Explorer v3.3 software): […]

EC50 (F508del/F508del CFTR; 18-24 hours at 37° C., equivalent short circuit current (Ieq), with control potentiator): 13 nM | Maximum % activity (F508del/F508del CFTR; relative to positive control (0.15 μM) coupled with control potentiator = 100%): 96% | EC50 (F508delCFTR; F508delCFTR cell surface expression, 18-24 hours at 33° C., luminescence readout): 27 nM | Maximum % activity (F508delCFTR; maximum at any tested concentration, normalized to on-plate positive control (3 μM)): 145%
Structure (SMILES): [2H]c1cc(C(=O)O)cc([2H])c1C1Oc2cc(OC(F)F)c([2H])c([2H])c2C([2H])(NC(=O)C2(c3ccc4c(c3)OC(F)(F)O4)CC2)C1([2H])[2H] [Example 1, 4-[(2R,4R)-4-({[1-(2,2-difluoro-1,3-benzodioxol-5-yl)cyclopropyl]carbonyl}amino)-7-(difluoromethoxy)(3,3,4,5,6-^2H5)-3,4-dihydro-2H-chromen-2-yl](3,5-^2H2)benzoic acid]

Reference: patent US20200123137A1, “DEUTERATED CFTR MODULATORS AND METHODS OF USE” (ABBVIE S.À.R.L., priority 2016, published 2020)
